Values after ≈ are worked out from the molar mass of the structure shown.
Experiments:
[1] = Kpuu assay (in vivo brain-to-plasma partition, unbound); details: intravenous infusion 4 to 24 h, unbound drug partition coefficient; for Kp: brain (unbound) versus plasma (unbound), read-out: Brain Kpu,u
IRAK4 = IRAK4 (Homo sapiens (Human), UniProt Q9NWZ3); experiment: IRAK4 2-hour 1 mM ATP Biochemical Assay (MesoScale Detection format); details: 100 pM IRAK4, read-out: IRAK4 IC50
[2] = Kinetic solubility assay (CLND), potassium phosphate buffer pH 6.8; assay type: physicochemical; details: potassium phosphate buffer, pH 6.8, aqueous buffer, kinetic from dmso stock, pH 6.8, 2% DMSO, 24 hours at ambient temperature
MDR1 = MDR1 (Homo sapiens (Human), UniProt P08183); experiment: MDR1-MDCK assay (apparent permeability, efflux ratio); assay type: in vitro ADME; details: human, MDCK-MDR1, 1 μM, read-out: MDR1-MDCK_Efflux Ratio
Sequence of MDR1 (P08183 whole entry): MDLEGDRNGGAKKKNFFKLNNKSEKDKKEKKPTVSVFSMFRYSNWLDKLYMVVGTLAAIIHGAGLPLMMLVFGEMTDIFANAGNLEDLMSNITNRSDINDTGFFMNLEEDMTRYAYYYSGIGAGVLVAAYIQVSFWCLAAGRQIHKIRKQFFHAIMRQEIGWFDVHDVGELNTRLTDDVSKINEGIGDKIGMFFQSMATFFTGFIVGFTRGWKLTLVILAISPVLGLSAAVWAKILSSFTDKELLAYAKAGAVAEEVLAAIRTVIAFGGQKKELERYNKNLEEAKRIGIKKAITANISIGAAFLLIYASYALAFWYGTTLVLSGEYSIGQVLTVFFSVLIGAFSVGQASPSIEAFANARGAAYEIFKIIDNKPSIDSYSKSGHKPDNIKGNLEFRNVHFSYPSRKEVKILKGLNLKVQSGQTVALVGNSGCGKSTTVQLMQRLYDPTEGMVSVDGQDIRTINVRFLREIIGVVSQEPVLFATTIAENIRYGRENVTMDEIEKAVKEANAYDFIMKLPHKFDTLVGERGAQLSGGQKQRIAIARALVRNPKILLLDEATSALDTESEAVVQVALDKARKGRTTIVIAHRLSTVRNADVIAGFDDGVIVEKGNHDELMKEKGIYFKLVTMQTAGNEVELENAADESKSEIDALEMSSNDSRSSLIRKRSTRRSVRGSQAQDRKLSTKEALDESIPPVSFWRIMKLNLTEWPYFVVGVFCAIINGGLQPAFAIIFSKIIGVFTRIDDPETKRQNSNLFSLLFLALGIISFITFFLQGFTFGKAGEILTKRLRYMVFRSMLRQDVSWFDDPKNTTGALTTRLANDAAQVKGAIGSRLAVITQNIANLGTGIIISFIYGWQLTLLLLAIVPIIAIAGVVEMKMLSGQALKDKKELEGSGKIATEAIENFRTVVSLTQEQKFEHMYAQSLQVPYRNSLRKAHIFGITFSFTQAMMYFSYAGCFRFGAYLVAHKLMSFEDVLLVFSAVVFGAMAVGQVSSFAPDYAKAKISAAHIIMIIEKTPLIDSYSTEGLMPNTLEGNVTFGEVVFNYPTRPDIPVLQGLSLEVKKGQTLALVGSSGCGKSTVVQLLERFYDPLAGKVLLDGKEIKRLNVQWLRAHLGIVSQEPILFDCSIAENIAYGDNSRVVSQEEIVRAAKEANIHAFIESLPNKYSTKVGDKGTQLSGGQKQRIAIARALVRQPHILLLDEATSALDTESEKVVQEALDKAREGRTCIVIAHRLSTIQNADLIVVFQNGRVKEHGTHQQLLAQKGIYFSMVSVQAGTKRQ

Sequence of IRAK4 (Q9NWZ3 whole entry): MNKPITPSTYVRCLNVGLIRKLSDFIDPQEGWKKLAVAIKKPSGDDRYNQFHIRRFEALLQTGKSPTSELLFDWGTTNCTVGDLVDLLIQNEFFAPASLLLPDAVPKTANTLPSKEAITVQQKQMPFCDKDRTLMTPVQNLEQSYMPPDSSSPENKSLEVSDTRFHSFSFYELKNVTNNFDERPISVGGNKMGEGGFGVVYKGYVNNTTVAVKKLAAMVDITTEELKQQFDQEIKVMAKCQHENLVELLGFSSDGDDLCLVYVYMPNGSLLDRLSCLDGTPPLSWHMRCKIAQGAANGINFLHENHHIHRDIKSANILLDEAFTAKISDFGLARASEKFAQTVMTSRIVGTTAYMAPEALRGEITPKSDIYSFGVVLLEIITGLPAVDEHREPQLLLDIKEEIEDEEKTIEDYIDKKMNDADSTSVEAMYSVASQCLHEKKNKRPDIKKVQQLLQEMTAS

SMILES	Brain Kpu,u [1]	IC50 (IRAK4) [nM]	solubility at 24 h [2] [µg/mL]	efflux ratio at 120 min, 1 μM (MDR1)	Kp [1]
CC(C)Oc1nc2nn([C@@H]3CCCOC3)cc2cc1C(=O)Nc1cccn(C2CC2)c1=O [Example 17, (R)—N-(1-cyclopropyl-2-oxo-1,2-dihydropyridin-3-yl)-6-isopropoxy-2-(tetrahydro-2H-pyran-3-yl)-2H-pyrazolo[3,4-b]pyridine-5-carboxamide]		0.2	50.4 (≈ 115 µM)	2.6	0.5
CC(C)Oc1nc2nn(C34COC(C)(C3)C4)cc2cc1C(=O)Nc1cccn([C@H]2C[C@H]2F)c1=O (single isomer, unassigned) [Example 34]			24.9 (≈ 53.3 µM)	3.8	0.7
COCC12CC(n3cc4cc(C(=O)Nc5cccn([C@H]6C[C@H]6F)c5=O)c(OC(C)C)nc4n3)(CO1)C2 [Example 49, N-(1-((1S,2R)-2-fluorocyclopropyl)-2-oxo-1,2-dihydropyridin-3-yl)-6-isopropoxy-2-(1-(methoxymethyl)-2-oxabicyclo[2.1.1]hexan-4-yl)-2H-pyrazolo[3,4-b]pyridine-5-carboxamide]		0.1	62.3 (≈ 125 µM)	9.67	0.4
CC12CC(n3cc4cc(C(=O)Nc5cccn([C@H]6C[C@H]6F)c5=O)c(OC5CCC5)nc4n3)(CO1)C2 [Example 27, 6-cyclobutoxy-N-(1-((1S,2R)-2-fluorocyclopropyl)-2-oxo-1,2-dihydropyridin-3-yl)-2-(1-methyl-2-oxabicyclo[2.1.1]hexan-4-yl)-2H-pyrazolo[3,4-b]pyridine-5-carboxamide]		0.1	1.2 (≈ 2.5 µM)	5.38	0.7
CC[C@H](C)Oc1nc2nn(C34COC(C)(C3)C4)cc2cc1C(=O)Nc1cccn(C2CC2)c1=O [Example 15, (S)-6-(sec-butoxy)-N-(1-cyclopropyl-2-oxo-1,2-dihydropyridin-3-yl)-2-(1-methyl-2-oxabicyclo[2.1.1]hexan-4-yl)-2H-pyrazolo[3,4-b]pyridine-5-carboxamide]		0.5		1.4	0.9
C[C@@]12CC[C@@](n3cc4cc(C(=O)Nc5cccn(C6CC6)c5=O)c(OC5CCC5)nc4n3)(CO1)C2 [Example 6, 6-cyclobutoxy-N-(1-cyclopropyl-2-oxo-1,2-dihydropyridin-3-yl)-2-((1S,4S)-1-methyl-2-oxabicyclo[2.2.1]heptan-4-yl)-2H-pyrazolo[3,4-b]pyridine-5-carboxamide]		0.4	5.57 (≈ 11.7 µM)	1.59	
COCC12CC(n3cc4cc(C(=O)Nc5cccn(C6CC6)c5=O)c(OC(C)C)nc4n3)(CO1)C2 [Example 11, N-(1-cyclopropyl-2-oxo-1,2-dihydropyridin-3-yl)-6-isopropoxy-2-(1-(methoxymethyl)-2-oxabicyclo[2.1.1]hexan-4-yl)-2H-pyrazolo[3,4-b]pyridine-5-carboxamide]		0.2	36 (≈ 75.1 µM)	4.8	0.9
CC(C)Oc1nc2nn(C[C@@H]3CCOC3)cc2cc1C(=O)Nc1cccn(C2CC2)c1=O [Example 4, (S)—N-(1-cyclopropyl-2-oxo-1,2-dihydropyridin-3-yl)-6-isopropoxy-2-((tetrahydrofuran-3-yl)methyl)-2H-pyrazolo[3,4-b]pyridine-5-carboxamide]		0.4	43 (≈ 98.2 µM)	6.36	0.4
COCC12CC(n3cc4cc(C(=O)Nc5cccn([C@H]6C[C@H]6C)c5=O)c(OC5CC5)nc4n3)(CO1)C2 [Example 90]		1.1	65.2 (≈ 133 µM)	5.39	
COCC12CC(n3cc4cc(C(=O)Nc5cccn([C@H]6C[C@H]6C)c5=O)c(OC(C)C)cc4n3)(CO1)C2 [Example 78, 6-isopropoxy-2-(1-(methoxymethyl)-2-oxabicyclo[2.1.1]hexan-4-yl)-N-(1-((1S,2R)-2-methylcyclopropyl)-2-oxo-1,2-dihydropyridin-3-yl)-2H-indazole-5-carboxamide]		0.7	36.1 (≈ 73.3 µM)	2.05	
O=C(Nc1cccn([C@H]2C[C@H]2F)c1=O)c1cc2cn([C@]34CC[C@H](C3)OC4)nc2nc1OC1CC1 (single isomer, unassigned) [Example 88]		0.2	59.3 (≈ 127 µM)	9.11	0.2
CC(C)Oc1cc2nn(C34COC(C3)C4)cc2cc1C(=O)Nc1cccn([C@H]2C[C@H]2F)c1=O [Example 68, 2-(2-oxabicyclo[2.1.1]hexan-4-yl)-N-(1-((1S,2R)-2-fluorocyclopropyl)-2-oxo-1,2-dihydropyridin-3-yl)-6-isopropoxy-2H-indazole-5-carboxamide]		0.2	45.3 (≈ 100 µM)	8.61	0.4
CC(C)Oc1nc2nn(C34COC(C3)C4)cc2cc1C(=O)Nc1cccn([C@H]2C[C@H]2C)c1=O [Example 80, 2-(2-oxabicyclo[2.1.1]hexan-4-yl)-6-isopropoxy-N-(1-((1S,2R)-2-methylcyclopropyl)-2-oxo-1,2-dihydropyridin-3-yl)-2H-pyrazolo[3,4-b]pyridine-5-carboxamide]		0.5	32.4 (≈ 72.1 µM)	4.42	1
CC(C)Oc1cc2nn(C34COC(CF)(C3)C4)cc2cc1C(=O)Nc1cccn([C@@H]2C[C@H]2C)c1=O (single isomer, unassigned) [Example 69]		0.5	8.2 (≈ 17.1 µM)	1.74	0.7
CC(C)Oc1nc2nn(C[C@H]3CCOC3)cc2cc1C(=O)Nc1cccn(C2CC2)c1=O [Example 5, (R)—N-(1-cyclopropyl-2-oxo-1,2-dihydropyridin-3-yl)-6-isopropoxy-2-((tetrahydrofuran-3-yl)methyl)-2H-pyrazolo[3,4-b]pyridine-5-carboxamide]		0.2	45.6 (≈ 104 µM)	4.88	0.8
COCC12CC(n3cc4cc(C(=O)Nc5cccn([C@H]6C[C@H]6C)c5=O)c(OC(C)C)nc4n3)(CO1)C2 [Example 77, 6-isopropoxy-2-(1-(methoxymethyl)-2-oxabicyclo[2.1.1]hexan-4-yl)-N-(1-((1S,2R)-2-methylcyclopropyl)-2-oxo-1,2-dihydropyridin-3-yl)-2H-pyrazolo[3,4-b]pyridine-5-carboxamide]		0.4	51 (≈ 103 µM)	2.09	0.9

Further lines, results first:

Brain Kpu,u [1]	IC50 (IRAK4) [nM]	solubility at 24 h [2] [µg/mL]	efflux ratio at 120 min, 1 μM (MDR1)	Kp [1]	SMILES
0.8	0.4	19.9 (≈ 41.9 µM)	1.32		C[C@@]12CC[C@@](n3cc4cc(C(=O)Nc5cccn(C6CC6)c5=O)c(OC5CCC5)cc4n3)(CO1)C2 (single isomer, unassigned) [Example 40]
	0.2		2.58	0.6	COC[C@@]12CC[C@@](n3cc4cc(C(=O)Nc5cccn(C6CC6)c5=O)c(OC(C)C)nc4n3)(CO1)C2 [Example 30, N-(1-cyclopropyl-2-oxo-1,2-dihydropyridin-3-yl)-6-isopropoxy-2-((1S,4S)-1-(methoxymethyl)-2-oxabicyclo[2.2.1]heptan-4-yl)-2H-pyrazolo[3,4-b]pyridine-5-carboxamide]
	0.5	55.4 (≈ 115 µM)	1.59	1.3	CC(C)Oc1cc2nn([C@@]34CC[C@@](C)(C3)OC4)cc2cc1C(=O)Nc1cccn([C@@H]2C[C@H]2F)c1=O (single isomer, unassigned) [Example 59]
	0.5	67.7 (≈ 141 µM)	2.82	0.7	COCC12CC(n3cc4cc(C(=O)Nc5cccn(C6CC6)c5=O)c(OC(C)C)cc4n3)(CO1)C2 [Example 12, N-(1-cyclopropyl-2-oxo-1,2-dihydropyridin-3-yl)-6-isopropoxy-2-(1-(methoxymethyl)-2-oxabicyclo[2.1.1]hexan-4-yl)-2H-indazole-5-carboxamide]
	0.5	52.9 (≈ 110 µM)	1.75		CC(C)Oc1cc2nn([C@@]34CC[C@@](C)(C3)OC4)cc2cc1C(=O)Nc1cccn([C@H]2C[C@@H]2F)c1=O (single isomer, unassigned) [Example 60]
	0.2	61.8 (≈ 125 µM)	2.5		COC[C@]12CC[C@](n3cc4cc(C(=O)Nc5cccn(C6CC6)c5=O)c(OC(C)C)nc4n3)(CO1)C2 [Example 31, N-(1-cyclopropyl-2-oxo-1,2-dihydropyridin-3-yl)-6-isopropoxy-2-((1R,4R)-1-(methoxymethyl)-2-oxabicyclo[2.2.1]heptan-4-yl)-2H-pyrazolo[3,4-b]pyridine-5-carboxamide]
	0.2	74.2 (≈ 150 µM)	2.79		COCC12CCC(n3cc4cc(C(=O)Nc5cccn(C6CC6)c5=O)c(OC(C)C)nc4n3)(CO1)C2 (centres unmarked) [Example 29, N-(1-cyclopropyl-2-oxo-1,2-dihydropyridin-3-yl)-6-isopropoxy-2-(1-(methoxymethyl)-2-oxabicyclo[2.2.1]heptan-4-yl)-2H-pyrazolo[3,4-b]pyridine-5-carboxamide]
	1.5	52.3 (≈ 103 µM)	4.05		COCC12CC(n3cc4cc(C(=O)Nc5cccn([C@H]6C[C@@H]6F)c5=O)c(OC5CCC5)cc4n3)(CO1)C2 (single isomer, unassigned) [Example 58]
